Test results: ChEMBL document CHEMBL1147188, “Metal complexes of retinoid derivatives with antiproliferative activity: synthesis, characterization and DNA interaction studies” (Eur J Med Chem, 2007)

Columns and labels:
[1] = tested on: PBMC; test: Growth inhibition of human PBMC after 48 hrs by XTT assay; assay type: cell-based
[2] = organism: Homo sapiens; test: Binding affinity to DNA
[3] = Partition coefficient, log P of the compound; assay type: physicochemical; conditions: octanol/water

Kb [2]: 8.3 10^5/M
logP [3]: 1.05
SMILES: CC1=C(/C=C/C(C)=C\C=C\C(C)=C\C=N/NC(N)=S)C(C)(C)CCC1
Activity [1]: Non-toxic
